# Measurements taken from patent publication US10487117B2, “Antimicrobial peptide for nosocomial infections” (priority 2015, dated 2019).
# Residues, ends and D or L forms follow the SMILES beside them.
# Tests used:
# Assay type in all cases: cell-based, Pseudomonas aeruginosa
# [1] = Biofilm cell mortality, BacTiter-Glo luminescent assay; conditions: 24 h formed biofilm; 4 h at 37° C.; 10% Triton X-100 as maximum reference; N.D. = not detected at 50 μM; read-out: Biofilm cell mortality (%max)
# Protocol: Bacterial viability was assayed using the BacTiter-Glo™ microbial cell viability kit. Briefly, protein/peptides were dissolved in 10 mM sodium phosphate, 0.1M buffer, pH 7.5, serially diluted from 50 to 0.1 μM and tested in a 96-well microtiter plate containing P. aeruginosa planktonic (OD600˜0.2) or 24 h formed biofilm for 4 h at 37° C. Fifty microliters of BacTiter-Glo™ reagent was added to each well according to the manufacturer's instructions and incubated at room temperature for 15 min. Luminescence was read on a Victor3 plate reader with a 3-s integration time. Fifty percent (ED50) and total inhibitory concentrations were calculated by fitting the data to a dose-response curve.
# As a first approach, the biofilm cell viability was monitored using the BacTiter-Glo™ luminescent assay. Therefore, the antimicrobial action of the studied AMPs was determined on already established P. aeruginosa biolfilms (FIG. 1 and Table 6). […] However, for all the active peptides, the concentrations needed to produce an equivalent effect in biofilms were between 2 to 10 times higher than in planktonic cultures. […] At the same time, we applied the crystal violet technique to assess the peptide ability to disperse pre-established P. aeruginosa biofilms.
# Biofilm formation assay was modified from the previously described protocol (Huedo P. et al. 2014). Briefly, overnight cultures of P. aeruginosa were centrifuged at 5000×g for 5 min, washed and adjusted to an OD600=0.1 in tryptic soy medium (TSB). Two hundred microliters of the bacterial suspension were dispensed in each well of a polystyrene 96-well microtiter plate (Greiner Bio-one, France). The plate was incubated at 37° C. on an orbital shaker (30 rpm). The media was exchanged with fresh pre-warmed TSB after 4 h, in order to remove the non-attached bacteria. After 24 h incubation, the formation of biofilm was then evaluated using the crystal violet staining technique (Stepanovic S. et al. 2000). Briefly, the plates were washed three times with PBS, fixed at 60° C. for 1 h, and stained for 15 min with 200 μl of 0.1% crystal violet. After the dye was discarded, plates were rinsed in PBS and allowed to dry for 30 min at 37° C. Crystal violet was dissolved in 250 μl of 95% ethanol for 15 min, and the OD570 of the extracted dye was measured using a Victor3 plate reader (Perkin-Elmer, Waltham, Mass.).
# planktonic P. aeruginosa = test: SYTOX Green membrane permeabilization assay, planktonic; conditions: for Permeabilization %max: 10% Triton X-100 as maximum reference
# Protocol: Further insight into the membrane-permeabilizing effect of the selected AMPs against P. aeruginosa was evaluated by the Sytox Green assay. Local membrane disturbances allow the cell uptake of the fluorescent Sytox Green dye that subsequently stains the cell nucleic acids; the fluorescence increase is registered to monitor the cell membrane permeabilization. Therefore, the half permeabilization action (ED50) was measured, and the total permeabilization activity expressed as a percentage (Table 5). […] On the other hand, WY-12 and CA-M required a 6- to 7-fold greater concentration than RNase 3 to produce half of their permeabilizing effect.
# (§1) Membrane permeabilization was followed using the method SYTOX Green Fluorescence membrane permeabilization assay. In the planktonic assay, bacterial cells were grown at 37° C. to an OD600=0.2, centrifuged at 5000×g for 5 min, and resuspended in 1×PBS to an OD600=0.2. An aliquot of 200 μl was then transferred to a microtiter plate. For biofilm assay, 24 h formed P. aeruginosa biofilm in a 96-well microtiter plate were washed three times with sterile PBS. SYTOX Green was added to a final concentration of 1 μM and incubated 15 min in darkness. Changes in the fluorescence were continuously recorded after addition of a serially diluted protein/peptides from 50 to 0.1 μM in a Victor3 plate reader. The peptide concentration required to achieve half of total and total membrane permeabilization achieved after 40 min was estimated from nonlinear regression analysis as previously described (Pulido D. et al. Antimicrob Agents Chemother 2013). A maximum reference value was taken for Triton X-100 at 10%.
# [2] = system: established P. aeruginosa biofilms; test: SYTOX Green membrane permeabilization assay on biofilm; conditions: maximum percentage at final incubation time, 10% Triton X-100 reference
# Protocol: as §1
# (§2) Thereupon, the antimicrobial mechanism of action of the RNase 3 derived peptide on P. aeruginosa biofilms was further characterized with the depolarization and permeabilization assays. As applied for the P. aeruginosa planktonic culture, the fluorescent DisC3(5) assay was also used here in order to monitor the depolarization activity of the studied protein and peptides against established biofilms. Therefore, we have measured the half depolarization action (ED50), and the total depolarization activity expressed as a percentage (Table 7). […] Similar results were obtained for the Sytox Green permeabilization assay, where the total permeabilization effect was hindered for all the AMPs tested, and between two to ten times higher concentrations were required to achieve half of the biofilm cell permeabilizing effect in comparison to the planktonic cells.
# [3] = system: established P. aeruginosa biofilms; test: DiSC3(5) membrane depolarization assay on biofilm; conditions: maximum percentage at final incubation time, 10% Triton X-100 reference
# Protocol: Membrane depolarization was followed using the method described earlier (Torrent M. et al. 2008). Briefly, bacterial cells were grown at 37° C. to an OD600=0.2, centrifuged at 5000×g for 7 min, washed with 5 mM Hepes at pH 7.2 containing 20 mM glucose, and resuspended in 5 mM Hepes-KOH, 20 mM glucose, and 100 mM KCl at pH 7.2 to an OD600=0.05 and 200 μl were transferred to a microtiter plate for planktonic assays. For biofilm assay, 24 h formed P. aeruginosa biofilm in a 96-well microtiter plate were washed three times with sterile PBS. Afterwards P. aeruginosa biofilms were washed with 5 mM Hepes at pH 7.2 containing 20 mM glucose, and rinsed in 5 mM Hepes-KOH, 20 mM glucose, and 100 mM KCl at pH 7.2. In both cases, DiSC3(5) was added to a final concentration of 0.4 μM and changes in the fluorescence were continuously recorded after addition of peptides at 10 μM in a Victor3 plate reader. A maximum reference value for total depolarization is calculated for Triton X-100 at 10%. Alternatively, changes in the fluorescence were continuously recorded after addition of a serially diluted protein/peptides from 50 to 0.1 μM. The peptide concentration required to achieve half of total and total membrane depolarization after 40 min incubation time was estimated from nonlinear regression analysis as previously described (Torrent M. et al. 2010)
# as §2
Structure (SMILES),mortality [1] [%],Permeabilization %max (planktonic P. aeruginosa) [%],Permeabilization Mean % ± SEM [2] [%],Depolarization Mean % ± SEM [3] [%],"Permeabilization ED50 (planktonic P. aeruginosa; 40 min, N.D. = not detected at 50 μM)"
CC[C@H](C)[C@H](NC(=O)[C@H](CCCCN)NC(=O)[C@H](CCC(=O)O)NC(=O)[C@H](CCCCN)NC(=O)[C@H](CO)NC(=O)[C@H](CCCCN)NC(=O)[C@H](CCCNC(=N)N)NC(=O)[C@H](Cc1ccccc1)NC(=O)[C@H](Cc1ccccc1)NC(=O)[C@H](CC(=O)O)NC(=O)CNC(=O)[C@H](CC(C)C)NC(=O)[C@@H](N)CC(C)C)C(=O)NCC(=O)N[C@@H](CCCCN)C(=O)N[C@@H](CCC(=O)O)C(=O)N[C@@H](Cc1ccccc1)C(=O)N[C@@H](CCCCN)C(=O)N[C@@H](CCCNC(=N)N)C(=O)N[C@H](C(=O)N[C@H](C(=O)N[C@@H](CCC(N)=O)C(=O)N[C@@H](CCCNC(=N)N)C(=O)N[C@H](C(=O)N[C@@H](CCCCN)C(=O)N[C@@H](CC(=O)O)C(=O)N[C@@H](Cc1ccccc1)C(=O)N[C@@H](CC(C)C)C(=O)N[C@@H](CCCNC(=N)N)C(=O)N[C@@H](CC(N)=O)C(=O)N[C@@H](CC(C)C)C(=O)N[C@H](C(=O)N1CCC[C@H]1C(=O)N[C@@H](CCCNC(=N)N)C(=O)N[C@H](C(=O)N[C@@H](CCC(=O)O)C(=O)N[C@@H](CO)C(N)=O)[C@@H](C)O)C(C)C)[C@@H](C)CC)C(C)C)[C@@H](C)CC [LL-37],64 ± 3.33,38.80 ± 1.13,24.21 ± 3.71,31.85 ± 1.15,–
CC[C@H](C)[C@H](NC(=O)CNC(=O)[C@@H](NC(=O)[C@H](CCCCN)NC(=O)[C@H](CCCCN)NC(=O)[C@H](Cc1ccccc1)NC(=O)[C@H](CC(C)C)NC(=O)[C@H](CCCCN)NC(=O)[C@H](Cc1c[nH]c2ccccc12)NC(=O)[C@@H](N)CCCCN)[C@@H](C)CC)C(=O)NCC(=O)N[C@@H](C)C(=O)N[C@H](C(=O)N[C@@H](CC(C)C)C(=O)N[C@@H](CCCCN)C(=O)N[C@H](C(=O)N[C@@H](CC(C)C)C(=O)N[C@H](C(=O)N[C@H](C(=O)NCC(=O)N[C@@H](CC(C)C)C(=O)N1CCC[C@H]1C(=O)N[C@@H](C)C(=O)N[C@@H](CC(C)C)C(=O)N[C@H](C(=O)N[C@@H](CO)C(N)=O)[C@@H](C)CC)[C@@H](C)O)[C@@H](C)O)C(C)C)C(C)C [CA-M],54.3 ± 5.51,34.69 ± 2.18,23.01 ± 1.13,39.09 ± 2.46,–
"CC[C@H](C)[C@H](NC(=O)[C@H](CCC(N)=O)NC(=O)CN)C(=O)N[C@H](C(=O)N[C@@H](CC(N)=O)C(=O)N[C@@H](CC(C)C)C(=O)N[C@@H](CCCCN)C(=O)N[C@@H](C)C(=O)N[C@@H](CO)C(=O)N[C@@H](CC(C)C)C(=O)N[C@@H](CC(=O)O)C(=O)N[C@@H](CC(C)C)C(=O)N[C@@H](CC(C)C)C(N)=O)[C@@H](C)CC [GL-13, GQIINLKASLDLL-NH2] (H-GQIINLKASLDLL-NH2)",–,–,–,–,unable to perform any cell membrane permeabilization
